Measurements as given in PubChem BioAssay AID1745844 (Carcinogenic Potency Database (CPDB), 2022).
Several values for one entry are separate records, joined by “and”; a condition that tells them apart may be missing. Identical values can stand only once. Activity calls are given as the source filed them. No rule for the calls is given here.

System: rodent lifetime carcinogenesis bioassay, tumor incidence TD50
Experiment: carcinogenic potency in animals, long-term in vivo studies, CPDB compilation (AID 1745844)

CC1(C)S[C@@H]2[C@H](NC(=O)COc3ccccc3)C(=O)N2[C@H]1C(=O)O
carcinogen call (mouse, strain B6C3F1, females, by gavage, site: any site (literature study), lesion: several types, types named in the paper, dosed 104 weeks, study length 104 weeks): negative (inactive)
TD50 (mouse, strain B6C3F1, females, by gavage, site: liver, lesion: hepatocellular adenoma + hepatocellular carcinoma + neoplastic nodule, dosed 104 weeks, study length 104 weeks): 10200 mg/kg/day
TD50 (mouse, strain B6C3F1, females, by gavage, site: lung, lesion: alveolar/bronchiolar adenoma + alveolar/bronchiolar carcinoma, dosed 104 weeks, study length 104 weeks): 16600 mg/kg/day
carcinogen call (mouse, strain B6C3F1, males, by gavage, site: any site (literature study), lesion: several types, types named in the paper, dosed 104 weeks, study length 104 weeks): negative (inactive)
TD50 (rat, strain Fischer 344, females, by gavage, site: any site (literature study), lesion: several types, types named in the paper, dosed 103 weeks, study length 104 weeks): 503 mg/kg/day
TD50 (rat, strain Fischer 344, females, by gavage, site: clitoral gland, lesion: adenoma, NOS, dosed 103 weeks, study length 104 weeks): 3650 mg/kg/day
TD50 (rat, strain Fischer 344, females, by gavage, site: thyroid gland, lesion: c-cell adenoma + c-cell carcinoma, dosed 103 weeks, study length 104 weeks): 1360 mg/kg/day (inactive)
TD50 (rat, strain Fischer 344, females, by gavage, site: thyroid gland, lesion: c-cell adenoma, dosed 103 weeks, study length 104 weeks): 1620 mg/kg/day
TD50 (rat, strain Fischer 344, males, by gavage, site: any site (literature study), lesion: several types, types named in the paper, dosed 103 weeks, study length 104 weeks): 544 mg/kg/day
TD50 (rat, strain Fischer 344, males, by gavage, site: liver, lesion: hepatocellular adenoma + hepatocellular carcinoma + neoplastic nodule, dosed 103 weeks, study length 104 weeks): 12200 mg/kg/day
TD50 (rat, strain Fischer 344, males, by gavage, site: pituitary gland, anterior, lesion: adenoma, NOS + carcinoma, NOS, dosed 103 weeks, study length 104 weeks): 874 mg/kg/day (inactive)
TD50 (rat, strain Fischer 344, males, by gavage, site: pituitary gland, anterior, lesion: adenoma, NOS, dosed 103 weeks, study length 104 weeks): 949 mg/kg/day

NC(Cc1c[nH]c2ccccc12)C(=O)O (centres undefined)
carcinogen call (rat, strain Fischer, males, in feed, site: liver, lesion: one or several types, types not named, dosed 98 weeks, study length 98 weeks): negative (inactive)
carcinogen call (rat, strain Fischer, males, in feed, site: urinary bladder, lesion: one or several types, types not named, dosed 98 weeks, study length 98 weeks): negative (inactive)

C#CC1(O)CC[C@H]2[C@@H]3CCC4=CCCC[C@@H]4[C@H]3CC[C@@]21C (some centres undefined)
TD50 (dog, strain Beagle, females, in feed, site: mammary gland, lesion: carcinoma, dosed 364 weeks, study length 364 weeks): 0.58 mg/kg/day

NC(=S)NNS(=O)(=O)c1ccccc1
TD50 (mouse, strain Swiss, females, by gavage, site: liver, lesion: liver-cell tumor, dosed 50 weeks, study length 60 weeks): 46.6 mg/kg/day
TD50 (mouse, strain Swiss, females, by gavage, site: lung, lesion: one or several types, types not named, dosed 50 weeks, study length 60 weeks): 46.6 mg/kg/day

CC(=O)O[C@]1(C(C)=O)CC[C@H]2[C@@H]3C=C(Cl)C4=CC(=O)CC[C@]4(C)[C@H]3CC[C@@]21C (tested in a mixture with another compound)
TD50 (mouse, strain (C3H x RIII)F1 (MTV+), males, in feed, site: mammary tissue, wider than the gland, lesion: one or several types, types not named, dosed 104 weeks, study length 104 weeks): 1.76 mg/kg/day
TD50 (mouse, strain C3H (MTV+), females, in feed, site: mammary tissue, wider than the gland, lesion: one or several types, types not named, dosed 104 weeks, study length 104 weeks): 5.98 mg/kg/day
TD50 (mouse, strain RIII (MTV+), females, in feed, site: mammary tissue, wider than the gland, lesion: one or several types, types not named, dosed 104 weeks, study length 104 weeks): 2.12 mg/kg/day

Nc1ccc2cc3ccc(N)cc3nc2c1
TD50 (mouse, strain B6C3F1, females, in feed, site: any site (literature study), lesion: several types, types named in the paper, dosed 103 weeks, study length 103 weeks): 86.2 mg/kg/day
TD50 (mouse, strain B6C3F1, females, in feed, site: liver, lesion: hepatocellular adenoma + hepatocellular carcinoma + neoplastic nodule, dosed 103 weeks, study length 103 weeks): 26.4 mg/kg/day
TD50 (mouse, strain B6C3F1, females, in feed, site: liver, lesion: hepatocellular adenoma + hepatocellular carcinoma, dosed 103 weeks, study length 103 weeks): 26.4 mg/kg/day
TD50 (mouse, strain B6C3F1, females, in feed, site: lung, lesion: alveolar/bronchiolar adenoma + alveolar/bronchiolar carcinoma, dosed 103 weeks, study length 103 weeks): 487 mg/kg/day
TD50 (mouse, strain B6C3F1, males, in feed, site: liver, lesion: hepatocellular adenoma + hepatocellular carcinoma + neoplastic nodule, dosed 103 weeks, study length 103 weeks): 248 mg/kg/day
TD50 (rat, strain Fischer 344, males, in feed, site: large intestine + small intestine, lesion: sarcoma, NOS + adenocarcinoma, NOS + leiomyosarcoma, dosed 109 weeks, study length 109 weeks): 213 mg/kg/day
TD50 (rat, strain Fischer 344, males, in feed, site: liver, lesion: hepatocellular adenoma + hepatocellular carcinoma + neoplastic nodule, dosed 109 weeks, study length 109 weeks): 254 mg/kg/day
TD50 (rat, strain Fischer 344, males, in feed, site: liver, lesion: hepatocellular carcinoma + neoplastic nodule, dosed 109 weeks, study length 109 weeks): 254 mg/kg/day

CC(=O)Nc1ccc2c(c1)Cc1cc(NC(C)=O)ccc1-2
TD50 (monkey, strain Cynomolgus [Macaca fascicularis], both sexes, in feed, site: breast, lesion: carcinoma, dosed 258 weeks, study length 1513 weeks): 307 mg/kg/day
TD50 (monkey, strain Cynomolgus [Macaca fascicularis], both sexes, in feed, site: lung, lesion: alveolar/bronchiolar carcinoma, dosed 258 weeks, study length 1513 weeks): 25.6 mg/kg/day

Nc1nc(N)c2nc(-c3ccccc3)c(N)nc2n1
TD50 (mouse, strain B6C3F1, females, in feed, site: any site (literature study), lesion: several types, types named in the paper, dosed 104 weeks, study length 104 weeks): 132 mg/kg/day and 64.4 mg/kg/day
TD50 (mouse, strain B6C3F1, females, in feed, site: liver, lesion: hepatocellular adenoma + hepatoblastoma + hepatocellular carcinoma, dosed 104 weeks, study length 104 weeks): 51.3 mg/kg/day and 45.3 mg/kg/day
TD50 (mouse, strain B6C3F1, females, in feed, site: liver, lesion: hepatocellular adenoma + hepatocellular carcinoma, dosed 104 weeks, study length 104 weeks): 51.3 mg/kg/day and 45.3 mg/kg/day
TD50 (mouse, strain B6C3F1, females, in feed, site: liver, lesion: hepatocellular adenoma, dosed 104 weeks, study length 104 weeks): 46 mg/kg/day and 45.7 mg/kg/day
TD50 (mouse, strain B6C3F1, males, in feed, site: Harderian gland, lesion: adenoma, dosed 104 weeks, study length 104 weeks): 235 mg/kg/day
TD50 (mouse, strain B6C3F1, males, in feed, site: any site (literature study), lesion: several types, types named in the paper, dosed 104 weeks, study length 104 weeks): 205 mg/kg/day and 86.7 mg/kg/day
TD50 (mouse, strain B6C3F1, males, in feed, site: liver, lesion: hepatocellular adenoma + hepatoblastoma + hepatocellular carcinoma, dosed 104 weeks, study length 104 weeks): 169 mg/kg/day and 61.2 mg/kg/day
TD50 (mouse, strain B6C3F1, males, in feed, site: liver, lesion: hepatocellular adenoma + hepatocellular carcinoma, dosed 104 weeks, study length 104 weeks): 162 mg/kg/day and 61.2 mg/kg/day
TD50 (mouse, strain B6C3F1, males, in feed, site: liver, lesion: hepatocellular adenoma, dosed 104 weeks, study length 104 weeks): 54.8 mg/kg/day
TD50 (mouse, strain B6C3F1, males, in feed, site: liver, lesion: hepatocellular carcinoma, dosed 104 weeks, study length 104 weeks): 227 mg/kg/day
TD50 (mouse, strain B6C3F1, males, in feed, site: lung, lesion: alveolar/bronchiolar adenoma + alveolar/bronchiolar carcinoma, dosed 104 weeks, study length 104 weeks): 233 mg/kg/day and 265 mg/kg/day
carcinogen call (rat, strain Fischer 344, females, in feed, site: any site (literature study), lesion: several types, types named in the paper, dosed 104 weeks, study length 104 weeks): negative (inactive)
TD50 (rat, strain Fischer 344, females, in feed, site: liver, lesion: hepatocellular adenoma + hepatoblastoma + hepatocellular carcinoma, dosed 104 weeks, study length 104 weeks): 520 mg/kg/day
TD50 (rat, strain Fischer 344, males, in feed, site: liver, lesion: hepatocellular adenoma + hepatoblastoma + hepatocellular carcinoma, dosed 104 weeks, study length 104 weeks): 11.8 mg/kg/day
TD50 (rat, strain Fischer 344, males, in feed, site: liver, lesion: hepatocellular adenoma, dosed 104 weeks, study length 104 weeks): 11.8 mg/kg/day

C=CCN(CC=C)N=O
TD50 (hamster, strain Syrian Golden, both sexes, by gavage, site: any site (literature study), lesion: several types, types named in the paper, dosed 53 weeks, study length 59 weeks): 1.54 mg/kg/day
TD50 (hamster, strain Syrian Golden, both sexes, by gavage, site: larynx, lesion: papillary polyp, dosed 53 weeks, study length 59 weeks): 3.69 mg/kg/day
TD50 (hamster, strain Syrian Golden, both sexes, by gavage, site: liver, lesion: cholangioma, dosed 53 weeks, study length 59 weeks): 743 mg/kg/day
TD50 (hamster, strain Syrian Golden, both sexes, by gavage, site: nasal cavity, posterior region, lesion: adenocarcinoma, dosed 53 weeks, study length 59 weeks): 2.86 mg/kg/day
TD50 (hamster, strain Syrian Golden, both sexes, by gavage, site: pharynx, lesion: papilloma, dosed 53 weeks, study length 59 weeks): 25.3 mg/kg/day
TD50 (hamster, strain Syrian Golden, both sexes, by gavage, site: trachea, lesion: papillary polyp, dosed 53 weeks, study length 59 weeks): 2.84 mg/kg/day
TD50 (rat, strain BD IX, females, in drinking water, site: nasal and paranasal cavity, lesion: adenocarcinoma, dosed 104 weeks, study length 104 weeks): 33.6 mg/kg/day
TD50 (rat, strain BD IX, females, in drinking water, site: nasal and paranasal cavity, lesion: several types, types named in the paper, dosed 104 weeks, study length 104 weeks): 32.1 mg/kg/day
TD50 (rat, strain BD IX, males, in drinking water, site: nasal and paranasal cavity, lesion: adenocarcinoma, dosed 104 weeks, study length 104 weeks): 46.9 mg/kg/day
TD50 (rat, strain BD IX, males, in drinking water, site: nasal and paranasal cavity, lesion: several types, types named in the paper, dosed 104 weeks, study length 104 weeks): 36 mg/kg/day

S=C(SN1CCOCC1)N1CCOCC1
TD50 (rat, strain Sprague-Dawley, females, in feed, site: kidney, lesion: several types, types named in the paper, dosed 112 weeks, study length 112 weeks): 338 mg/kg/day
TD50 (rat, strain Sprague-Dawley, females, in feed, site: kidney, lesion: squamous-cell carcinoma, dosed 112 weeks, study length 112 weeks): 571 mg/kg/day
TD50 (rat, strain Sprague-Dawley, females, in feed, site: kidney, lesion: urothelial carcinoma, dosed 112 weeks, study length 112 weeks): 571 mg/kg/day
TD50 (rat, strain Sprague-Dawley, females, in feed, site: kidney, lesion: urothelial papilloma, dosed 112 weeks, study length 112 weeks): 1740 mg/kg/day
TD50 (rat, strain Sprague-Dawley, females, in feed, site: urinary bladder, lesion: several types, types named in the paper, dosed 112 weeks, study length 112 weeks): 206 mg/kg/day
TD50 (rat, strain Sprague-Dawley, females, in feed, site: urinary bladder, lesion: squamous-cell carcinoma, dosed 112 weeks, study length 112 weeks): 1740 mg/kg/day
TD50 (rat, strain Sprague-Dawley, females, in feed, site: urinary bladder, lesion: squamous-cell papilloma, dosed 112 weeks, study length 112 weeks): 862 mg/kg/day
TD50 (rat, strain Sprague-Dawley, females, in feed, site: urinary bladder, lesion: urothelial carcinoma, dosed 112 weeks, study length 112 weeks): 862 mg/kg/day
TD50 (rat, strain Sprague-Dawley, females, in feed, site: urinary bladder, lesion: urothelial papilloma, dosed 112 weeks, study length 112 weeks): 571 mg/kg/day
TD50 (rat, strain Sprague-Dawley, females, in feed, site: urinary tract, lesion: several types, types named in the paper, dosed 112 weeks, study length 112 weeks): 96.9 mg/kg/day
TD50 (rat, strain Sprague-Dawley, males, in feed, site: kidney, lesion: several types, types named in the paper, dosed 112 weeks, study length 112 weeks): 528 mg/kg/day
TD50 (rat, strain Sprague-Dawley, males, in feed, site: kidney, lesion: squamous-cell carcinoma, dosed 112 weeks, study length 112 weeks): 1390 mg/kg/day
TD50 (rat, strain Sprague-Dawley, males, in feed, site: kidney, lesion: urothelial carcinoma, dosed 112 weeks, study length 112 weeks): 690 mg/kg/day
TD50 (rat, strain Sprague-Dawley, males, in feed, site: urinary bladder, lesion: several types, types named in the paper, dosed 112 weeks, study length 112 weeks): 130 mg/kg/day
TD50 (rat, strain Sprague-Dawley, males, in feed, site: urinary bladder, lesion: squamous-cell carcinoma, dosed 112 weeks, study length 112 weeks): 690 mg/kg/day
TD50 (rat, strain Sprague-Dawley, males, in feed, site: urinary bladder, lesion: squamous-cell papilloma, dosed 112 weeks, study length 112 weeks): 1390 mg/kg/day
TD50 (rat, strain Sprague-Dawley, males, in feed, site: urinary bladder, lesion: urothelial carcinoma, dosed 112 weeks, study length 112 weeks): 340 mg/kg/day
TD50 (rat, strain Sprague-Dawley, males, in feed, site: urinary bladder, lesion: urothelial papilloma, dosed 112 weeks, study length 112 weeks): 457 mg/kg/day
TD50 (rat, strain Sprague-Dawley, males, in feed, site: urinary tract, lesion: several types, types named in the paper, dosed 112 weeks, study length 112 weeks): 85.5 mg/kg/day
